Measurements from patent US12612409B2, “Pyrrolopyrimidines as CFTR potentiators” (Cystic Fibrosis Foundation, priority 2016, dated 2026).
pEC50: −log10 of the molar value.

How the values were obtained:
[1] = target: T1, recombinant F508del V470 CFTR in Fischer rat thyroid (FRT) cells (Homo sapiens, UniProt P13569, DEL508-508); experiment: FRT ion flux assay of F508del CFTR potentiation; type: cell-based; details: FRT cells expressing F508del V470 CFTR, forskolin 20 uM, 27° C. pre-incubation
T1 construct: expressed in transfected cells
T1 sequence (P13569 with tags, fused parts or gaps DEL508-508): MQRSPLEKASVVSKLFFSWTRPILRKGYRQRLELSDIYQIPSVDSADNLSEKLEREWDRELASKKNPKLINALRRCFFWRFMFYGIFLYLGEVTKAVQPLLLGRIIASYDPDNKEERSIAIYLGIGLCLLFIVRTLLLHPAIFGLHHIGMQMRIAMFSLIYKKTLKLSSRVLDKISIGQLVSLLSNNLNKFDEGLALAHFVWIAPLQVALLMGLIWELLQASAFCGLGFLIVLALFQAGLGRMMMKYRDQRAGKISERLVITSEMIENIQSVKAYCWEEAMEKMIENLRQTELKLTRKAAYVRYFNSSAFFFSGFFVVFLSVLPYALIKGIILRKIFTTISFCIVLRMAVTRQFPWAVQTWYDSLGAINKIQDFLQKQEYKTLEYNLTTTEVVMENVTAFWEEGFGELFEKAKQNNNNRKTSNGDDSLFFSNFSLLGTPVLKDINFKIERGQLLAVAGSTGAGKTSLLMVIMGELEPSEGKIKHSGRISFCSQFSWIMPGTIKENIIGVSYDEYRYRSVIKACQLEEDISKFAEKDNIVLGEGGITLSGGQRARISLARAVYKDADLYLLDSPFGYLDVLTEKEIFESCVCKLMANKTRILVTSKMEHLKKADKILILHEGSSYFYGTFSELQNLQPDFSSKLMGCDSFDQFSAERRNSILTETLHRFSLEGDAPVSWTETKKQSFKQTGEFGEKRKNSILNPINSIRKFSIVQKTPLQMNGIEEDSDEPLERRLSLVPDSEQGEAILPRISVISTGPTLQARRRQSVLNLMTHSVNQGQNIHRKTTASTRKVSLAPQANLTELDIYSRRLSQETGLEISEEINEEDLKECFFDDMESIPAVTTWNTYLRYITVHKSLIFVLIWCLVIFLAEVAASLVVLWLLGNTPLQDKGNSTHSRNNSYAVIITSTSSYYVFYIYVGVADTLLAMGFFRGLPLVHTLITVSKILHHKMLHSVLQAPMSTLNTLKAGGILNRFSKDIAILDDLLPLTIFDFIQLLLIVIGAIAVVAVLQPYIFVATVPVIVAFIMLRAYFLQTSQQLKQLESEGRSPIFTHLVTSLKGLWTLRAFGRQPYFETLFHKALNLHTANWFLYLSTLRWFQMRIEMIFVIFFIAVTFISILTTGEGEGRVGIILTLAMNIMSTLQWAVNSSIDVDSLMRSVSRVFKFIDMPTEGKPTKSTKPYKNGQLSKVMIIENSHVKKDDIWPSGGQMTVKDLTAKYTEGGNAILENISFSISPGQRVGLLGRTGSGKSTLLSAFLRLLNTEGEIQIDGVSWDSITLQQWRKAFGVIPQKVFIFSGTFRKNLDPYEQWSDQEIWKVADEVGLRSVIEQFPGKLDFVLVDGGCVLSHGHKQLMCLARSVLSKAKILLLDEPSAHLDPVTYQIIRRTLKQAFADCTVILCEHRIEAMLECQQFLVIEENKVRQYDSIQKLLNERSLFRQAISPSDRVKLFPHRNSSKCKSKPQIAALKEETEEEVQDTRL
Method in brief: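 FRT cells co-expressing F508del V470 CFTR and halide-sensitive YFP, temperature-corrected at 27° C for 16-24 h, then treated 30 min with compound plus 20 uM forskolin. Iodide addition quenches YFP, read after ~21 s; ratio scaled to DMSO (0%) and positive control potentiator (100%).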

[2] = target: T2, CFTR in F508del/F508del primary CF hBE cells (Homo sapiens, UniProt P13569, DEL508-508); experiment: Ussing chamber electrophysiology assay of CFTR potentiation in F508del/F508del CF bronchial epithelial cells (27° C.); type: cell-based
T2 construct: Primary cystic fibrosis human bronchial epithelial (CF hBE) cells were expanded and cultured; endogenous in cells; host or cells: primary CF human bronchial epithelial cells, genotype F508del/F508del
T2 sequence (P13569 with tags, fused parts or gaps DEL508-508): as above
Method in brief: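 Well-differentiated primary CF hBE cells (>30 days air/liquid interface) in Ussing chambers, HEPES saline both sides, voltage clamped to zero. Amiloride 30 uM, forskolin 10 uM, four rising compound concentrations, then CFTRinh-172 20 uM added at 20-25 min intervals. Short-circuit current scaled to DMSO (0%) and a positive control potentiator maximum (100%).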

SMILES	pEC50 [1]	pEC50 [2]
CC(c1cn(-c2ccccc2F)nn1)n1cc(-c2cccc(C(F)(F)F)c2)c2c(N)ncnc21 (centres unmarked) [Example 97, 7-{1-[1-(2-Fluorophenyl)-1H-1,2,3-triazol-4-yl]ethyl}-5-[3-(trifluoromethyl)phenyl]-7H-pyrrolo[2,3-d]pyrimidin-4-amine]	6.64	6.79
CC(c1cnc(-c2ccccc2F)[nH]1)n1cc(-c2ccc3[nH]ncc3c2)c2c(N)ncnc21 (centres unmarked) [Example 66, 7-{1-[2-(2-Fluorophenyl)-1H-imidazol-5-yl]ethyl}-5-(1H-indazol-5-yl)-7H-pyrrolo[2,3-d]pyrimidin-4-amine]	6.24	5.88
CC(c1cn(-c2ccc(F)cc2F)nn1)n1c(C#N)c(-c2ccc(OC3CC3)nc2)c2c(N)ncnc21 (single isomer, unassigned; enantiomer 1) [Example 320, 4-Amino-5-[6-(cyclopropyloxy)pyridin-3-yl]-7-{1-[1-(2,4-difluorophenyl)-1H-1,2,3-triazol-4-yl]ethyl}-7H-pyrrolo[2,3-d]pyrimidine-6-carbonitrile, enantiomer 1]	6.92	7.34
Nc1ncnc2c1c(C1CCCO1)cn2Cc1cn(-c2ccccc2F)nn1 (centres unmarked) [Example 198, 7-{[1-(2-Fluorophenyl)-1H-1,2,3-triazol-4-yl]methyl}-5-(tetrahydrofuran-2-yl)-7H-pyrrolo[2,3-d]pyrimidin-4-amine]	< 4.60	5.67
Cn1ncc2cc(-c3cn(Cc4cn(-c5ccccc5F)nn4)c4ncnc(N)c34)ccc21 [Example 86, 7-{[1-(2-Fluorophenyl)-1H-1,2,3-triazol-4-yl]methyl}-5-(1-methyl-1H-indazol-5-yl)-7H-pyrrolo[2,3-d]pyrimidin-4-amine]	6.27	6.18

Stronger by pEC50 [1], values ahead:

pEC50 [1]	pEC50 [2]	SMILES
7.23	7.64	CC(c1cn(-c2ccccc2F)nn1)n1cc(-c2ccc(OC3CC3)nc2)c2c(N)ncnc21 (centres unmarked) [Example 213, 5-[6-(Cyclopropyloxy)pyridin-3-yl]-7-{1-[1-(2-fluorophenyl)-1H-1,2,3-triazol-4-yl]ethyl}-7H-pyrrolo[2,3-d]pyrimidin-4-amine]
7.59	7.26	CCC(c1cn(-c2ccccc2)nn1)n1cc(-c2cncnc2OC)c2c(N)ncnc21 (centres unmarked) [Example 248, 5-(4-Methoxypyrimidin-5-yl)-7-{1-[1-phenyl-1H-1,2,3-triazol-4-yl]propyl}-7H-pyrrolo[2,3-d]pyrimidin-4-amine]
7.67	7.92	CCC(c1cn(-c2ccccc2)nn1)n1cc(-c2ccc(OC)nc2)c2c(N)ncnc21 (single isomer, unassigned; enantiomer 2) [Example 126, 5-(6-Methoxypyridin-3-yl)-7-[1-(1-phenyl-1H-1,2,3-triazol-4-yl)propyl]-7H-pyrrolo[2,3-d]pyrimidin-4-amine, enantiomer 2]
7.87	7.79	N#Cc1c(-c2cnc(C(F)(F)F)nc2)c2c(N)ncnc2n1Cc1cn(-c2ccccc2F)nn1 [Example 37]
8.24	8.52	CCC(c1cn(-c2ccccc2F)nn1)n1cc(-c2cc(F)cnc2OC)c2c(N)ncnc21 (single isomer, unassigned; enantiomer 1) [Example 139, (+) 5-(5-Fluoro-2-methoxypyridin-3-yl)-7-{1-[1-(2-fluorophenyl)-1H-1,2,3-triazol-4-yl]propyl}-7H-pyrrolo[2,3-d]pyrimidin-4-amine, enantiomer 1]
